Source: patent US20220089602A1, “COMPOUNDS THAT INDUCE FERROPTIC CELL DEATH” (The Board of Trustees of the University of Illinois, priority 2019, published 2022)

What was measured:
[1] = test system: primary cancer cells from patients with metastatic cancers; assay: 72 hr cell viability Alamar Blue assay in primary patient-derived cells; type: cell-based, human; settings: versus cisplatin, 5-FU, etoposide, PAC-1
Experimental: Cells were grown at 37° C. under a humidified 5% CO2 atmosphere, in a culture medium consisting of high-glucose (Life Technology) DMEM media for Mia PaCa-2, D54, U87, K7-M2, SK-MEL-5, and 3LL cells or RPMI 1640 for ES-2, HCT 116, MDA-MB-231, A549, T47D, B16-F10, and BT-549 cells or McCoy's 5A media for HT29 cells. All media were supplemented with 10% FBS (Gemini), penicillin (50 IU/ml), streptomycin (50 μg/ml) and glutamine (2 mM) (Cellgro). Primary cells were isolated from pleural effusions of metastatic patients at Carle Foundation Hospital (IRB #15149) following a protocol as described previously (Med. Sci. 2, 70-81, (2014)).
To a 384-well plate, 40 μL of 1.25× compound dilution or 1.25% DMSO-containing media was added (final volume of 1% DMSO). Concentrations of compounds tested were 100 μM to 100 nM. On each plate at least 3 technical replicates per compound were performed. Next, 10 μL of a 100,000 cells/mL suspension was added to each well, yielding a final concentration of 1,000 cells/well. To three wells in column 2 was added 1 μL of 10 mM doxorubicin (final concentration of 200 μM) as positive control of cell death. Plates were sealed with gas-permeable seals and incubated at 37° C. for 72 h. […] Fluorescence was read on a Molecular Devices SpectraMax 3 (excitation=555 nm, emission=585 nm, emission cutoff=570 nm). […]

red blood cells = assay: Hemolysis assay; type: cell-based, human; settings: 2 hr treatment with 333 μM
Experimental: Whole human blood in citrate phosphate dextrose was obtained from Bioreclamation LLC, stored at 4° C. and used before expiration date. 100 μL of whole blood was combined with 500 μL saline (0.9% NaCl) and centrifuged for 5 min at 300×g. The supernatant was carefully removed from the erythrocyte pellet and the liquid was discarded. Washed pellet 3× in 500 μL saline. The erythrocyte pellet was resuspended in 800 μL of Red Blood Cell Buffer (10 mM Na2HPO4, 150 mM NaCl, 1 mM MgCl2, pH 7.4). To a 0.5 mL eppendorf tube or a PCR plate was added 1.0 μL of 30× compound in DMSO and 19 μL RBC Buffer. For negative controls, 1.0 μL DMSO was combined with 19 μL RBC buffer. For positive controls, either 20 μL MilliQ H2O or 1.0 μL 30% Triton X-100 were combined with 19 μL RBC Buffer. Tubes or plates were briefly centrifuged. Next, 10 μL of washed erythrocyte suspension was added to each tube, then sealed. After incubation at 37° C. for 2 h, samples were centrifuged for 5 min at 300×g, and 20 μL of supernatant was carefully removed and transferred to wells of a clear flat-bottomed 384-well plate. Absorbance was measured at 540 nm. The data were plotted as compound concentration versus percent hemolysis, and fitted to OriginPro (OriginLab, Northampton, Mass.).

`C[C@@H]1CC[C@@]23C[C@H](O)C(=O)[C@@]2(O)[C@]1(C)[C@H](OC(=O)CCl)C[C@@H](C1=CCn2c(=O)n(-c4ccccc4)c(=O)n2C1)[C@@H]3C` [Compound P18, ferroptocide] was tested, and the “killing of primary cancer cells versus chemotherapeutics” value [1] was “kills these cancer cells better than approved and experimental chemotherapeutics”, the hemolytic activity (red blood cells; listed as Ferroptocide) was “no hemolytic activity” and the hemolytic activity (red blood cells; listed as ferroptocide) was “Lack of hemolytic activity”.
